{
  "source": "patent US6833150B1",
  "about": "“Spray -dried bacteriocin powder with anti-microbial activity” (Teagasc, The Agriculture and Food Development Authority, priority 2001, dated 2004)",
  "key": {"[1]": {"test_system": "Gram-positive organisms, including Listeria, Clostridium spp., Enterococcus, Staphylococcus and Streptococcus", "settings": "cited from earlier work"}, "Staph. aureus ATCC6538": {"test_system": "Staph. aureus ATCC6538", "assay": "High pressure and lacticin 3147 inactivation in milk (10% RSM)", "type": "cell-based, Staphylococcus aureus", "experimental": "For the inactivation of Staph. aureus ATCC6538 a liquid preparation of lacticin 3147 was prepared using hydrophobic adsorption chromatography. For studies on inactivation of L. innocua DPC1770 a food grade powdered preparation of lacticin 3147 was manufactured as described above with the following modification; a 1% demineralised whey powder solution was fermented with L. lactis subsp. lactis DPC3147 under pH controlled conditions of pH 6.0 for 18 hours.\nStaph. aureus ATCC6538 cells were resuspended in 10% RSM and aliquoted into sterile 700 μl PCR eppendorfs prior to placing in sterile stomacher bags (Seward Ltd., London, UK). Ten millilitre volumes of L. innocua DPC1770 cells were resuspended in 20% reconstituted demineralised whey powder aliquoted into sterile stomacher bags. Samples were individually vacuum sealed prior to placing in the pressure vessel (Stansted Fluid Power Ltd., Stansted, England). The vessel consisted of a stainless-steel cylinder (37 mm diameter×300 mm height) filled with a 15% (v/v) caster oil in ethanol solution which acts as the hydrostatic pressurisation medium. Samples were treated for 30 min at 25° C. in the pressure range 150 to 600 MPa, in addition to a control sample being held at atmospheric pressure (0.1 MPa). […] The chamber temperature was determined by means of a thermoregulating system which circulated to maintain the chamber temperature."}, "L. lactis HP": {"test_system": "L. lactis HP", "assay": "Effect of high pressure on lacticin 3147 activity (well diffusion assay)", "type": "cell-based, Lactococcus lactis", "settings": "pressures greater than 400 MPa", "experimental": "(§1) Activity of both lacticin 3147 preparations was determined by the agar well diffusion assay as described by Parente and Hill (15). Molten agar was seeded with the indicator strain L. lactis subsp. lactis HP and dispensed into petri dishes. Wells of approximately 6.0 mm in diameter were bored in the agar and a 50 μl volume of a two fold serial dilution of a bacteriocin preparation was dispensed into each well. The plates were then incubated at 30° C. Bacteriocin activity was calculated as the inverse of the last dilution that gave a definite zone of clearance after overnight incubation. Activity units (AU) were expressed per milliliter (1/dilution, ×20). Activity may also be expressed as zone diameter (mm), where the diameter of the first zone (neat, undiluted sample) of the dilution series is recorded.\nPressurised and non-pressurised solutions of lacticin 3147 were heat treated at 80° C. for 10 minutes prior to carrying out activity determination by the well diffusion assay using L. lactis HP as an indicator strain."}, "[2]": {"test_system": "L. lactis subsp lactis HP", "assay": "Bacteriocin activity by agar well diffusion assay", "type": "cell-based, Lactococcus lactis", "settings": "for Bacteriocin activity: 10% reconstituted demineralized whey powder; for Lacticin 3147 activity: overnight incubation at 30° C.", "experimental": "Bacteriocin activity was determined by the agar well diffusion assay as described by Parente and Hill (15). Molten agar was seeded with an indicator strain and dispensed into petri dishes. Wells of approximately 4.6 mm in diameter were bored in the agar and a 50 μl volume of a two fold serial dilution of a bacteriocin preparation was dispensed into each well. Bacteriocin solution was prepared by centrifuging the culture and heat treating the supernatant at 70° C. for 10 minutes prior to carrying out the dilution series. The plates were then incubated at either 30° C. or 37° C., depending on the indicator strain used. Bacteriocin activity was calculated as the inverse of the last dilution that gave a definite zone of clearance after overnight incubation. Activity units (AU) were expressed per milliliter (1/dilution, ×20).\nas §1"}},
  "data": [
    {"substance": "lacticin 3147", "values": [
      {"measurement": "inhibitory spectrum", "setting": "[1]", "value": "inhibitory to a wide range of Gram-positive organisms"},
      {"measurement": "logs of kill", "setting": "Staph. aureus ATCC6538; combination of 250 MPa and lacticin 3147, 30 min at 25° C.", "value": "more than 6 logs"},
      {"measurement": "log reduction", "setting": "Staph. aureus ATCC6538; concentrated lacticin 3147 from culture supernatant alone", "value": 1, "unit": "log"},
      {"measurement": "change in bacteriocin activity after pressure treatment", "setting": "L. lactis HP", "value": "doubling of activity"},
      {"measurement": "Bacteriocin activity", "setting": "[2]; constant pH 6.0, 30° C.", "value": 5120, "unit": "AU/ml"},
      {"measurement": "Bacteriocin activity", "setting": "[2]; constant pH 7.0, 30° C.", "value": 5120, "unit": "AU/ml"},
      {"measurement": "Bacteriocin activity", "setting": "[2]; no pH control, 30° C.", "value": 640, "unit": "AU/ml"},
      {"measurement": "Bacteriocin activity", "setting": "[2]; pH held constant at pH 6.5, 30° C.", "value": "10,240 AU/ml"},
      {"measurement": "Effect of pasteurisation on bacteriocin activity", "setting": "[2]; 72° C. for 15 sec", "value": "no effect"},
      {"measurement": "Bacteriocin activity during manufacture", "setting": "[2]; after evaporation at 60° C. from 10% to 40% total solids", "value": "40,960 AU/ml"},
      {"measurement": "Activity of the concentrate following overnight crystallisation", "setting": "[2]; cooled from 32° C. at 1° C. per hour overnight", "value": "remained stable"},
      {"measurement": "Bacteriocin activity during manufacture", "setting": "[2]; following the pH controlled 170 L fermentation (pH 6.5, 10% total solids)", "value": "10,240 AU/ml"},
      {"measurement": "Lacticin 3147 activity", "setting": "[2]; growth medium 10% reconstituted demineralised whey powder", "value": "1,280 AU/ml"},
      {"measurement": "Lacticin 3147 activity", "setting": "[2]; growth medium 10% reconstituted demineralised whey powder, listed as Lacticin 3147", "value": 1280, "unit": "AU/ml"},
      {"measurement": "Lacticin 3147 activity", "setting": "[2]; growth medium 10% reconstituted skimmed milk powder", "value": "1,280 AU/ml"},
      {"measurement": "Lacticin 3147 activity", "setting": "[2]; growth medium 10% reconstituted skimmed milk powder, listed as Lacticin 3147", "value": 1280, "unit": "AU/ml"},
      {"measurement": "Lacticin 3147 activity", "setting": "[2]; growth medium Cheddar cheese whey", "value": "2,560 AU/ml"},
      {"measurement": "Lacticin 3147 activity", "setting": "[2]; growth medium Cheddar cheese whey, listed as Lacticin 3147", "value": 2560, "unit": "AU/ml"},
      {"measurement": "Lacticin 3147 activity", "setting": "[2]; growth medium LM17", "value": "2,560 AU/ml"},
      {"measurement": "Lacticin 3147 activity", "setting": "[2]; growth medium LM17, listed as Lacticin 3147", "value": 2560, "unit": "AU/ml"},
      {"measurement": "Lacticin 3147 activity", "setting": "[2]; growth medium TY broth", "value": 640, "unit": "AU/ml"},
      {"measurement": "Lacticin 3147 activity", "setting": "[2]; growth medium whey protein concentrate (WPC35)", "value": 320, "unit": "AU/ml"},
      {"measurement": "Lacticin 3147 activity", "setting": "[2]; growth medium whole milk", "value": "2,560 AU/ml"},
      {"measurement": "Lacticin 3147 activity", "setting": "[2]; growth medium whole milk, listed as Lacticin 3147", "value": 2560, "unit": "AU/ml"},
      {"measurement": "Lacticin 3147 activity expressed as AU/g of dry matter throughout manufacture", "setting": "[2]; remained constant through pasteurisation, evaporation, crystallisation, spray drying", "value": "102,400 AU/g"}
    ]}
  ]
}
